Reference: article PMC8449129, “Single tracer-based protocol for broad-spectrum kinase profiling in live cells with NanoBRET” (STAR Protocols, 2021)

Assays:
EPHA6 = target: T1, EPHA6 (Homo sapiens, UniProt Q9UF33); assay: NanoBRET target engagement, Tracer K10 displacement in live HEK293 cells; format: cell-based; settings: […] h, […] C, n = […]
T1 construct: full-length kinase, C-terminal NanoLuc fusion, transfected HEK293 cells

SBK3 = target: T2, SBK3 (Homo sapiens, UniProt P0C264); assay: as above; format: cell-based; settings: […] h, […] C, n = […]
T2 construct: full-length kinase, N-terminal NanoLuc fusion, transfected HEK293 cells
Text: NanoBRET target engagement, Tracer K10 displacement in live HEK293 cells on SBK3

NTRK2 = target: T3, NTRK2 (Homo sapiens, UniProt Q16620); assay: as above; format: cell-based; settings: […] h, […] C, n = […]
T3 construct: full-length kinase, C-terminal NanoLuc fusion, transfected HEK293 cells
Text: NanoBRET target engagement, Tracer K10 displacement in live HEK293 cells on NTRK2

EPHA7 = target: T4, EPHA7 (Homo sapiens, UniProt Q15375); assay: as above; format: cell-based; settings: […] h, […] C, n = […]
T4 construct: full-length kinase, C-terminal NanoLuc fusion, transfected HEK293 cells
Text: NanoBRET target engagement, Tracer K10 displacement in live HEK293 cells on EPHA7

NTRK1 = target: T5, NTRK1 (Homo sapiens, UniProt P04629); assay: as above; format: cell-based; settings: […] h, […] C, n = […]
T5 construct: full-length kinase, C-terminal NanoLuc fusion, transfected HEK293 cells
Text: NanoBRET target engagement, Tracer K10 displacement in live HEK293 cells on NTRK1

CDK20 = CDK20 (Homo sapiens, UniProt Q8IZL9); assay: cell-based; design: NanoBRET live-cell target engagement; % occupancy from displacement of tracer K10 on NanoLuc-kinase fusions, mean n=3; settings: HEK293, read-out: % inhibition
Outline: (§1)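 Live-cell NanoBRET target engagement: cells expressing kinase–NanoLuc fusion with tracer treated with compound 2 h at 37 °C, 5% CO2. BRET read from donor (450 nm) and acceptor (610/630 nm) emission with 20 μM extracellular NanoLuc inhibitor; % occupancy calculated relative to tracer+DMSO and zero-BRET controls.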

CDK7 = CDK7 (Homo sapiens, UniProt P50613); assay: cell-based; design: NanoBRET live-cell target engagement; % occupancy from displacement of tracer K10 on NanoLuc-kinase fusions, mean n=3; settings: HEK293, read-out: % inhibition
Outline: as §1

CSNK1A1L = CSNK1A1L (Homo sapiens, UniProt Q8N752); assay: cell-based; design: NanoBRET live-cell target engagement; % occupancy from displacement of tracer K10 on NanoLuc-kinase fusions, mean n=3; settings: HEK293, read-out: % inhibition
Outline: as §1

FER = FER (Homo sapiens, UniProt P16591); assay: cell-based; design: NanoBRET live-cell target engagement; % occupancy from displacement of tracer K10 on NanoLuc-kinase fusions, mean n=3; settings: HEK293, read-out: % inhibition
Outline: as §1

NEK11 = NEK11 (Homo sapiens, UniProt Q8NG66); assay: cell-based; design: NanoBRET live-cell target engagement; % occupancy from displacement of tracer K10 on NanoLuc-kinase fusions, mean n=3; settings: HEK293, read-out: % inhibition
Outline: as §1

RIOK2 = RIOK2 (Homo sapiens, UniProt Q9BVS4); assay: cell-based; design: NanoBRET live-cell target engagement; % occupancy from displacement of tracer K10 on NanoLuc-kinase fusions, mean n=3; settings: HEK293, read-out: % inhibition
Outline: as §1

RIPK1 = RIPK1 (Homo sapiens, UniProt Q13546); assay: cell-based; design: NanoBRET live-cell target engagement; % occupancy from displacement of tracer K10 on NanoLuc-kinase fusions, mean n=3; settings: HEK293, read-out: % inhibition
Outline: as §1

SIK1 = SIK1 (Homo sapiens, UniProt P57059); assay: cell-based; design: NanoBRET live-cell target engagement; % occupancy from displacement of tracer K10 on NanoLuc-kinase fusions, mean n=3; settings: HEK293, read-out: % inhibition
Outline: as §1

STK38L = STK38L (Homo sapiens, UniProt Q9Y2H1); assay: cell-based; design: NanoBRET live-cell target engagement; % occupancy from displacement of tracer K10 on NanoLuc-kinase fusions, mean n=3; settings: HEK293, read-out: % inhibition
Outline: as §1

TLK1 = TLK1 (Homo sapiens, UniProt Q9UKI8); assay: cell-based; design: NanoBRET live-cell target engagement; % occupancy from displacement of tracer K10 on NanoLuc-kinase fusions, mean n=3; settings: HEK293, read-out: % inhibition
Outline: as §1

LTK = LTK (Homo sapiens, UniProt P29376); assay: cell-based; design: species or system HEK293; NanoBRET live-cell target engagement; % occupancy from displacement of tracer K10 on NanoLuc-kinase fusions, mean n=3; settings: D=C; E=100; % occupancy, tracer K10 displacement; 1 µM; binder
Experimental: (§2) • 18. Prepare 10× test compounds in OptiMEM • a. Dilute the test compound to 1000× in DMSO (or the test compound solvent). […] Add 10μL per well of 10× test compound or 10μL of the DMSO control to the 96-well plates containing cells with 1× tracer. Mix on orbital shaker for 15 s at 900 rpm. • 20. Incubate the plate at 37°C + 5% CO2 incubator for 2hr. Allow plate to cool to RT for ∼15 min, then proceed to NanoBRET^TM Assay section below. • 21. Immediately before the BRET measurements, prepare 3× Complete NanoBRET^TM Nano-Glo® Substrate in OptiMEM without serum or phenol red. […] Mix gently by inverting 5–10 times in a conical tube. (The final concentration of Extracellular NanoLuc inhibitor in the 3× solution is 60 μM, for a working concentration of 20 μM.) • a. Note: 3× solutions should be used within 1.5 h after preparation. • 22. […] Incubate 2–3 min at RT. Following addition of NanoBRET^TM Nano-Glo® Substrate, measure donor emission (e.g., 450 nm) and acceptor emission (e.g., 610 nm or 630 nm) using a NanoBRET™-compatible luminometer. Fractional occupancy Quantitation • 2. Determine Fractional Occupancy with the following equation; % Occupancy = [1 – (X – Z)/( Y – Z)]∗100 • Where: • X = BRET in the presence of the test compound and tracer, • Y = BRET in the presence of the 100% BRET Control (Tracer + DMSO) • Z = BRET for the Zero BRET Control, e.g., • a. […]

STK33 = STK33 (Homo sapiens, UniProt Q9BYT3); assay: cell-based; design: species or system HEK293; NanoBRET live-cell target engagement; % occupancy from displacement of tracer K10 on NanoLuc-kinase fusions, mean n=3; settings: HEK293; D=N; E=250; % occupancy, tracer K10 displacement
Experimental: as §2

T5 sequence (P04629 33-796): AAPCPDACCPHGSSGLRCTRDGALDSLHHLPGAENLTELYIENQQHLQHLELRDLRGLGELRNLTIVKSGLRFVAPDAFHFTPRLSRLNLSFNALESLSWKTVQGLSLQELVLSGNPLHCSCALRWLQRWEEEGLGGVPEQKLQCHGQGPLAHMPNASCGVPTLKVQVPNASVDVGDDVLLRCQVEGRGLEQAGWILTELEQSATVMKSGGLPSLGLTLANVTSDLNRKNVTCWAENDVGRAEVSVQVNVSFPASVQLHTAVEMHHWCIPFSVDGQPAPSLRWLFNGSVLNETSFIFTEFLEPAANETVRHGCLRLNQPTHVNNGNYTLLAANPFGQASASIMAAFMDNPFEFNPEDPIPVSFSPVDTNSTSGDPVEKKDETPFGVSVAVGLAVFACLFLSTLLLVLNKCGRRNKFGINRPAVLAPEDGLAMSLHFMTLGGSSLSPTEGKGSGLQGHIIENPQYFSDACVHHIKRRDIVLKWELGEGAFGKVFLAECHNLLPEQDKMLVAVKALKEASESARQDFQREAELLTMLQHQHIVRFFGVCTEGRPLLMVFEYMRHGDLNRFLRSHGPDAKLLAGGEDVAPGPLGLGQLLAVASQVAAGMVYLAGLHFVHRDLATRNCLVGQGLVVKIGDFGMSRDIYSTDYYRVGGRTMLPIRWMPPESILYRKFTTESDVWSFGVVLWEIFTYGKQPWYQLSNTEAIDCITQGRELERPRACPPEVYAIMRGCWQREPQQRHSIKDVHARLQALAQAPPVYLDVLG
T4 sequence (Q15375 28-998): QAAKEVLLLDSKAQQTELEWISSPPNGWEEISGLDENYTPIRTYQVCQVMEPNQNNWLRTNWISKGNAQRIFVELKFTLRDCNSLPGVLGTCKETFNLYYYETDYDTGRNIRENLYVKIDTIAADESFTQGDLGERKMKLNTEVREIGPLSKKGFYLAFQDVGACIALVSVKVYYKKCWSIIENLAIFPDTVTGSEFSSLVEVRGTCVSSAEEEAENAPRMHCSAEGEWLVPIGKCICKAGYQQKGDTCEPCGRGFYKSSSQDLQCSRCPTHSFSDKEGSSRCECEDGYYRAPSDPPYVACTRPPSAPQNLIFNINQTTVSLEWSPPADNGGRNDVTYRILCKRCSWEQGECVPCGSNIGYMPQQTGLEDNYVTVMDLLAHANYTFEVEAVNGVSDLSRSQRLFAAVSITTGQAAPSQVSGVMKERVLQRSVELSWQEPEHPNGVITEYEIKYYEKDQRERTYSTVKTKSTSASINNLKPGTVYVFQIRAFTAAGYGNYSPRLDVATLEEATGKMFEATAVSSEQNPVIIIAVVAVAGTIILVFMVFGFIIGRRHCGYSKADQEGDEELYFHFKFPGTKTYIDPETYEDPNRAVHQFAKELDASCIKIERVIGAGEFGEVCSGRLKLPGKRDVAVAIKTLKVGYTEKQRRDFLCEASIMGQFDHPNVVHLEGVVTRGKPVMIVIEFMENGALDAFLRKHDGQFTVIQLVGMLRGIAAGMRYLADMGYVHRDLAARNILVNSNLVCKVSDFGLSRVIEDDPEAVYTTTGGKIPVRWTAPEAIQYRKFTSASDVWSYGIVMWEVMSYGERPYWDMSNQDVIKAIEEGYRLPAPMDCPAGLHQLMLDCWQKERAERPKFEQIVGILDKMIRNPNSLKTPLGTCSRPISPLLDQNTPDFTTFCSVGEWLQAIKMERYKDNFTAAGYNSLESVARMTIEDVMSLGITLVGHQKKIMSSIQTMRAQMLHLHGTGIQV
Sequence of STK33 (Q9BYT3 whole entry, the tested form may be a part): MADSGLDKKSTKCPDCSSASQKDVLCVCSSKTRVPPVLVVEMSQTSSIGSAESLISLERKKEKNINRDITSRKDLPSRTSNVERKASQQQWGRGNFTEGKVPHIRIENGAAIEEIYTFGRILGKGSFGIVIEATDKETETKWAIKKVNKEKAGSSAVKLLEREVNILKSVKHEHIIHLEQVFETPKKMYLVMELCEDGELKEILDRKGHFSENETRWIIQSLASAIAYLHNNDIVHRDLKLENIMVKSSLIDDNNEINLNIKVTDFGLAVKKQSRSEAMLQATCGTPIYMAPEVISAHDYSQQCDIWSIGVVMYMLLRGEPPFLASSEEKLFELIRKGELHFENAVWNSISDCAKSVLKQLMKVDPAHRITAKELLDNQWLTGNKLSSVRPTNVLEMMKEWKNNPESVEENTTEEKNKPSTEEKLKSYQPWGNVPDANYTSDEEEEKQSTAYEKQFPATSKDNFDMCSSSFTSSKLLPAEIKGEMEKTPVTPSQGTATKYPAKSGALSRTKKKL
T3 sequence (Q16620 32-822): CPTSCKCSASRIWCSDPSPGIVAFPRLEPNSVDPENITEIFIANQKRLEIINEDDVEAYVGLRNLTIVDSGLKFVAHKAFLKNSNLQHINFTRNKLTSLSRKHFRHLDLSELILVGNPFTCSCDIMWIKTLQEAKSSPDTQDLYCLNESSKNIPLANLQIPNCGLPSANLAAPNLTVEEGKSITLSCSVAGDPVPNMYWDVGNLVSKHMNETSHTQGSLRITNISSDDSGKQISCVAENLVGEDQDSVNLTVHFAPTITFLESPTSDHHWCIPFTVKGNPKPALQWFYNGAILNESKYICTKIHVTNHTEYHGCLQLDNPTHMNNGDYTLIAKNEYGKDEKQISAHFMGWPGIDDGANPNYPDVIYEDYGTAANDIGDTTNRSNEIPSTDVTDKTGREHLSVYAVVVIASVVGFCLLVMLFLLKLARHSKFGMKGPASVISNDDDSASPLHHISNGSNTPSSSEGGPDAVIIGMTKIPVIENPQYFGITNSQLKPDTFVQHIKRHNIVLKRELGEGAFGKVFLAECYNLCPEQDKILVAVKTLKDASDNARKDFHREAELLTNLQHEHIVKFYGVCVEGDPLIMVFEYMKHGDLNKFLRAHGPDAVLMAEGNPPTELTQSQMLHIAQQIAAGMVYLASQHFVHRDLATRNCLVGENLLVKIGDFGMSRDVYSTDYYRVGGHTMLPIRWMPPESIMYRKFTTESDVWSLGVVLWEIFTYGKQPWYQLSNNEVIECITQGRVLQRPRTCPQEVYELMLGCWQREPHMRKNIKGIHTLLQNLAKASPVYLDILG
Sequence of CDK7 (P50613 whole entry, the tested form may be a part): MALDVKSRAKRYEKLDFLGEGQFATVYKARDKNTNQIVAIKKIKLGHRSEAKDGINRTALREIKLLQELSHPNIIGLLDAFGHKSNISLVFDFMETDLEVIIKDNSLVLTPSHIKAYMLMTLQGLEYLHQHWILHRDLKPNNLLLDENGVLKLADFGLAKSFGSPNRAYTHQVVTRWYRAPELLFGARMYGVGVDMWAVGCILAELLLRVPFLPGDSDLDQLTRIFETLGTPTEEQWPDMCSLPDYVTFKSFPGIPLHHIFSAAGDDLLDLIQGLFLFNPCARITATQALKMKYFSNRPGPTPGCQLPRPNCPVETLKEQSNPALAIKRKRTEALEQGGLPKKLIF
Sequence of SIK1 (P57059 whole entry, the tested form may be a part): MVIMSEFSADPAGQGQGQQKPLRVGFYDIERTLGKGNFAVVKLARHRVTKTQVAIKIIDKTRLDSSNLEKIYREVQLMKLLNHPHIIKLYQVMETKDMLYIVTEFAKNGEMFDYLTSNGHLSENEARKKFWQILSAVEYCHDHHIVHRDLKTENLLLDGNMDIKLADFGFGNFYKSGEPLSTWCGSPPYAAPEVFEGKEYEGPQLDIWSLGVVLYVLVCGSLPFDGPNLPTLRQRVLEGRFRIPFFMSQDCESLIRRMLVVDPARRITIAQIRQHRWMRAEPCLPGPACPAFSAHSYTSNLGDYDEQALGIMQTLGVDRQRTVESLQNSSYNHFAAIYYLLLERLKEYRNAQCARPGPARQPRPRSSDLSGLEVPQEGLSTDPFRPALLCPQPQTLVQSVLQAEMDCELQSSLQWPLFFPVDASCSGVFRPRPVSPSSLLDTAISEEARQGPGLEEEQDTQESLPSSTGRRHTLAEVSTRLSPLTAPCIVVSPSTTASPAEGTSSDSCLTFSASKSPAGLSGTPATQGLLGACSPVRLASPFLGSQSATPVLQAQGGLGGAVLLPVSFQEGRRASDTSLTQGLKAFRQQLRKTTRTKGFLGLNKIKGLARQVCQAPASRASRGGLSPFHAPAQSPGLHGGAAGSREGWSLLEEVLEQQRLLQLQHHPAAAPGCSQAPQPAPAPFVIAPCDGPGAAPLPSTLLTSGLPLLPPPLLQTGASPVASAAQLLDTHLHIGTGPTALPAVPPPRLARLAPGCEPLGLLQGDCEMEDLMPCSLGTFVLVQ
Sequence of RIOK2 (Q9BVS4 whole entry, the tested form may be a part): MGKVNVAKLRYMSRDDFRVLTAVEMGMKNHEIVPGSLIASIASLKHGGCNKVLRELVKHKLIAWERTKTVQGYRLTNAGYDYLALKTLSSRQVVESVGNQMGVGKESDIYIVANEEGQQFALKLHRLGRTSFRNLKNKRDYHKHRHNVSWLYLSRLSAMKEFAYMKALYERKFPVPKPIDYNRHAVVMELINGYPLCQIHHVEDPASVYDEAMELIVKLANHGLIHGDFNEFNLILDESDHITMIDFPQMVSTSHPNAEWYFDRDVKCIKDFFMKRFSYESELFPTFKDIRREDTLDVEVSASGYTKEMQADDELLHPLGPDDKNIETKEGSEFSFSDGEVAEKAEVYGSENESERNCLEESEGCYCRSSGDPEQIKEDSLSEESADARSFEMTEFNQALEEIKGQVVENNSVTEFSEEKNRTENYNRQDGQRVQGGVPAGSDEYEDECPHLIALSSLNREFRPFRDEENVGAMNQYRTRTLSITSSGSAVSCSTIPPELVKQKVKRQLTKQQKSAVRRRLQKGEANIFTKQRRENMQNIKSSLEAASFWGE

Crizotinib % occupancy, 1 uM (EPHA6): 64 ± 5.1%
Crizotinib % occupancy, 1 uM (SBK3): 41 ± 5.6%
Crizotinib % occupancy, 1 uM (NTRK2): 85 ± 2.3%
Crizotinib % occupancy, 1 uM (EPHA7): 38 ± 2.4%
Crizotinib % occupancy, 1 uM (NTRK1): 71 ± 2.5%
inhibition at 1 µM (CDK20): -11%
inhibition at 1 µM (CDK7): 32%
inhibition at 1 µM (CSNK1A1L): -6%
inhibition at 1 µM (FER): 16%
inhibition at 1 µM (NEK11): 7%
inhibition at 1 µM (RIOK2): 9%
inhibition at 1 µM (RIPK1): 23%
inhibition at 1 µM (SIK1): -4%
inhibition at 1 µM (STK38L): 5%
inhibition at 1 µM (TLK1): -5%
% inhibition (LTK): 87%
inhibition at 1 µM (STK33): -3%
SMILES: C[C@@H](Oc1cc(-c2cnn(C3CCNCC3)c2)cnc1N)c1c(Cl)ccc(F)c1Cl [crizotinib]
